From US11472811B2, “Pyrazolotriazolopyrimidine derivatives as A2A receptor antagonist” (BEIGENE, LTD., priority 2018, dated 2022)

Each compound was assayed against human A2A receptor (A2AR) (Homo sapiens (Human), UniProt P29274) (assay: Luciferase reporter assay (HEK293-A2AR-luc2p/CRE/Hygro cells)). Conditions: 3 nM CGS21680, 5 h incubation.
Sequence of human A2A receptor (A2AR) (P29274 whole entry): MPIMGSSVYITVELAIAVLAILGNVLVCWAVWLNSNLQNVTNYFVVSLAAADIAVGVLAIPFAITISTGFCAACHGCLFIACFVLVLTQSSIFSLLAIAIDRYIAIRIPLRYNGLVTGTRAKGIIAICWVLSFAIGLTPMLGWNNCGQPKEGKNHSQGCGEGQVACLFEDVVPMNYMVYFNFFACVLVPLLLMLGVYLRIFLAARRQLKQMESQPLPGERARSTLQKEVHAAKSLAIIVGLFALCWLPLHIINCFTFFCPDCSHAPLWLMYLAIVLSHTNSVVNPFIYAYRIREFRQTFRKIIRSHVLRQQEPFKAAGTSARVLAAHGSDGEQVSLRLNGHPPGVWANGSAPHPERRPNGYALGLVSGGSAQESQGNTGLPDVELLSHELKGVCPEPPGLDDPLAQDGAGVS
Assay type: cell-based
In short: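 HEK293 cells stably expressing human A2AR and a CRE-luc2P reporter were seeded in 1% FBS with 1 U/mL adenosine deaminase. After 18 h they were stimulated 5 h with 3 nM CGS21680 plus compound (0.1–10000 nM), then luciferase luminescence was read. IC50 was taken from inhibition curves, with CGS21680 alone set as 100%.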
Work on `CC(C(=O)NCC1(O)CCCCC1)(c1ccccc1)n1ncc2c1nc(N)n1nc(-c3ccco3)nc21` (stereo not shown) [Example 72, 2-(5-amino-2-(furan-2-yl)-7H-pyrazolo[4,3-e][1,2,4]triazolo[1,5-c]pyrimidin-7-yl)-N-((1-hydroxycyclohexyl)methyl)-2-phenylpropanamide] yielded an IC50 of 7.8 nM.
`CC(C(=O)Nc1ccccn1)(c1ccccc1)n1ncc2c1nc(N)n1nc(-c3ccco3)nc21` (stereo not shown) [Example 77, 2-(5-amino-2-(furan-2-yl)-7H-pyrazolo[4,3-e][1,2,4]triazolo[1,5-c]pyrimidin-7-yl)-2-phenyl-N-(pyridin-2-yl)propanamide] showed an IC50 of 15.3 nM.
`CC(C(=O)NCc1ccc2c(c1)OCO2)(c1ccccc1)n1ncc2c1nc(N)n1nc(-c3ccco3)nc21` (stereo not shown) [Example 42, 2-(5-amino-2-(furan-2-yl)-7H-pyrazolo[4,3-e][1,2,4]triazolo[1,5-c]pyrimidin-7-yl)-N-(benzo[d][1,3]dioxol-5-ylmethyl)-2-phenylpropanamide] was tested, and the IC50 was 3.9 nM.
In the case of `CC(C(=O)N[C@H]1CC[C@](C)(O)CC1)(c1ccccc1)n1ncc2c1nc(N)n1nc(-c3ccco3)nc21` (stereo partly drawn) [Example 69, 2-(5-amino-2-(furan-2-yl)-7H-pyrazolo[4,3-e][1,2,4]triazolo[1,5-c]pyrimidin-7-yl)-(cis)-N-(4-hydroxy-4-methylcyclohexyl)-2-phenylpropanamide], the IC50 is reported as 10.5 nM.
In the case of `CC(C(=O)NCC1CCOCC1)(c1ccccc1)n1ncc2c1nc(N)n1nc(-c3ccco3)nc21` (stereo not shown) [Example 97, 2-(5-amino-2-(furan-2-yl)-7H-pyrazolo[4,3-e][1,2,4]triazolo[1,5-c]pyrimidin-7-yl)-2-phenyl-N-((tetrahydro-2H-pyran-4-yl)methyl)propenamide], the IC50 is reported as 10.4 nM.
For `Nc1nc2c(cnn2C(C(=O)NCc2cccc(C(F)(F)F)c2)c2ccccc2)c2nc(-c3ccco3)nn12` (stereo not shown) [Example 22, 2-(5-amino-2-(furan-2-yl)-7H-pyrazolo[4,3-e][1,2,4]triazolo[1,5-c]pyrimidin-7-yl)-2-phenyl-N-(3-(trifluoromethyl)benzyl)acetamide], the IC50 was 1.4 nM.
`C[C@](C(=O)NCc1ncccc1F)(c1ccccc1)n1ncc2c1nc(N)n1nc(-c3ccco3)nc21` [Example 119B, (R)-2-(5-amino-2-(furan-2-yl)-7H-pyrazolo[4,3-e][1,2,4]triazolo[1,5-c]pyrimidin-7-yl)-N-((3-fluoropyridin-2-yl)methyl)-2-phenylpropanamide] was tested, and the IC50 was 2 nM.
`Cc1cccc(C(C)(C(=O)NCC2(O)COC2)n2ncc3c2nc(N)n2nc(-c4ccco4)nc32)c1` (stereo not shown) [Example 85, 2-(5-amino-2-(furan-2-yl)-7H-pyrazolo[4,3-e][1,2,4]triazolo[1,5-c]pyrimidin-7-yl)-N-((3-hydroxyoxetan-3-yl)methyl)-2-(m-tolyl)propanamide] showed an IC50 of 7.3 nM.
`C[C@](C(=O)NCc1cc(F)ccn1)(c1ccccc1)n1ncc2c1nc(N)n1nc(-c3ccco3)nc21` [Example 118B, (R)-2-(5-amino-2-(furan-2-yl)-7H-pyrazolo[4,3-e][1,2,4]triazolo[1,5-c]pyrimidin-7-yl)-N-((4-fluoropyridin-2-yl)methyl)-2-phenylpropanamide] showed an IC50 of 6 nM.
Compound `Nc1nc2c(cnn2C(C(=O)NC2CCCc3ccccc32)c2ccccc2)c2nc(-c3ccco3)nn12` (stereo not shown) [Example 13, 2-(5-amino-2-(furan-2-yl)-7H-pyrazolo[4,3-e][1,2,4]triazolo[1,5-c]pyrimidin-7-yl)-2-phenyl-N-(1,2,3,4-tetrahydronaphthalen-1-yl)acetamide] has an IC50 of 8.3 nM.
In the case of `Nc1nc2c(cnn2C(C(=O)NCc2cccc(C3(O)CCC3)n2)c2ccccc2)c2nc(-c3ccco3)nn12` (stereo not shown) [Example 18, 2-(5-amino-2-(furan-2-yl)-7H-pyrazolo[4,3-e][1,2,4]triazolo[1,5-c]pyrimidin-7-yl)-N-((6-(1-hydroxycyclobutyl)pyridin-2-yl)methyl)-2-phenylacetamide], the IC50 is reported as 0.9 nM.
`Cc1ccc(CNC(=O)[C@@](C)(c2ccccc2)n2ncc3c2nc(N)n2nc(-c4ccco4)nc32)nc1` [Example 109B, (R)-2-(5-amino-2-(furan-2-yl)-7H-pyrazolo[4,3-e][1,2,4]triazolo[1,5-c]pyrimidin-7-yl)-N-((5-methylpyridin-2-yl)methyl)-2-phenylpropanamide] gave an IC50 of 0.7 nM.
In the case of `Nc1nc2c(cnn2C(C(=O)N[C@H]2CCCC[C@H]2O)c2ccccc2)c2nc(-c3ccco3)nn12` (stereo partly drawn) [Example 91, 2-(5-amino-2-(furan-2-yl)-7H-pyrazolo[4,3-e][1,2,4]triazolo[1,5-c]pyrimidin-7-yl)-N-((1S,2R)-2-hydroxycyclohexyl)-2-phenylacetamide], the IC50 is reported as 15.1 nM.
For `Cc1ccccc1C(C)(C(=O)NCC1(O)COC1)n1ncc2c1nc(N)n1nc(-c3ccco3)nc21` (stereo not shown) [Example 63, 2-(5-amino-2-(furan-2-yl)-7H-pyrazolo[4,3-e][1,2,4]triazolo[1,5-c]pyrimidin-7-yl)-N-((3-hydroxyoxetan-3-yl)methyl)-2-(o-tolyl)propanamide], the IC50 was 4.3 nM.
In the case of `CC(C(=O)NC1CC1)(c1ccccc1)n1ncc2c1nc(N)n1nc(-c3ccco3)nc21` (stereo not shown) [Example 40, 2-(5-amino-2-(furan-2-yl)-7H-pyrazolo[4,3-e][1,2,4]triazolo[1,5-c]pyrimidin-7-yl)-N-cyclopropyl-2-phenylpropanamide], the IC50 is reported as 14.9 nM.
With `C[C@]1(O)CC[C@H](NC(=O)C(c2ccccc2)n2ncc3c2nc(N)n2nc(-c4ccco4)nc32)CC1` (stereo partly drawn) [Example 96, 2-(5-amino-2-(furan-2-yl)-7H-pyrazolo[4,3-e][1,2,4]triazolo[1,5-c]pyrimidin-7-yl)-(cis)-N-(4-hydroxy-4-methylcyclohexyl)-2-phenylacetamide] the IC50 was 7.5 nM.
`CN(C)CCNC(=O)C(C)(c1ccccc1)n1ncc2c1nc(N)n1nc(-c3ccco3)nc21` (stereo not shown) [Example 62, 2-(5-amino-2-(furan-2-yl)-7H-pyrazolo[4,3-e][1,2,4]triazolo[1,5-c]pyrimidin-7-yl)-N-(2-(dimethylamino)ethyl)-2-phenylpropanamide] was tested, and the IC50 was 91.1 nM.
Work on `CC(C(=O)NC[C@@H]1CCCO1)(c1ccccc1)n1ncc2c1nc(N)n1nc(-c3ccco3)nc21` (stereo partly drawn) [Example 51, 2-(5-amino-2-(furan-2-yl)-7H-pyrazolo[4,3-e][1,2,4]triazolo[1,5-c]pyrimidin-7-yl)-2-phenyl-N—(((S)-tetrahydrofuran-2-yl)methyl)propanamide] yielded an IC50 of 2.7 nM.
In the case of `COCCNC(=O)C(C)(c1ccccc1)n1ncc2c1nc(N)n1nc(-c3ccco3)nc21` (stereo not shown) [Example 39, 2-(5-amino-2-(furan-2-yl)-7H-pyrazolo[4,3-e][1,2,4]triazolo[1,5-c]pyrimidin-7-yl)-N-(2-methoxyethyl)-2-phenylpropanamide], the IC50 is reported as 7.6 nM.
`C[C@](C(=O)NCc1ccc(F)cn1)(c1ccccc1)n1ncc2c1nc(N)n1nc(-c3ccco3)nc21` [Example 117B, (R)-2-(5-amino-2-(furan-2-yl)-7H-pyrazolo[4,3-e][1,2,4]triazolo[1,5-c]pyrimidin-7-yl)-N-((5-fluoropyridin-2-yl)methyl)-2-phenylpropanamide] was tested, and the IC50 was 3.2 nM.
`CC(C(=O)N[C@@H]1CNC(=O)C1)(c1ccccc1)n1ncc2c1nc(N)n1nc(-c3ccco3)nc21` (stereo partly drawn) [Example 100, 2-(5-amino-2-(furan-2-yl)-7H-pyrazolo[4,3-e][1,2,4]triazolo[1,5-c]pyrimidin-7-yl)-N—((S)-5-oxopyrrolidin-3-yl)-2-phenylpropanamide] was tested, and the IC50 was 11.8 nM.
`C[C@](C(=O)N[C@H]1C[C@@H](O)C1)(c1ccccc1)n1ncc2c1nc(N)n1nc(-c3ccco3)nc21` [Example 104B, (R)-2-(5-amino-2-(furan-2-yl)-7H-pyrazolo[4,3-e][1,2,4]triazolo[1,5-c]pyrimidin-7-yl)-(cis)-N-(3-hydroxycyclobutyl)-2-phenylpropanamide] gave an IC50 of 9.1 nM.
`C[C@](C(=O)N[C@@H]1CCCC[C@@H]1O)(c1ccccc1)n1ncc2c1nc(N)n1nc(-c3ccco3)nc21` [Example 58B, (R)-2-(5-amino-2-(furan-2-yl)-7H-pyrazolo[4,3-e][1,2,4]triazolo[1,5-c]pyrimidin-7-yl)-N-((1R,2S)-2-hydroxycyclohexyl)-2-phenylpropanamide] showed an IC50 of 1.3 nM.
`CC(C(=O)NCc1ccccc1)(c1ccccc1)n1ncc2c1nc(N)n1nc(-c3ccco3)nc21` (stereo not shown) [Example 35, 2-(5-amino-2-(furan-2-yl)-7H-pyrazolo[4,3-e][1,2,4]triazolo[1,5-c]pyrimidin-7-yl)-N-benzyl-2-phenylpropanamide] gave an IC50 of 10.7 nM.
Work on `CC(C(=O)N[C@H]1CC[C@H](O)CC1)(c1ccccc1)n1ncc2c1nc(N)n1nc(-c3ccco3)nc21` (relative stereo) [Example 52, 2-(5-amino-2-(furan-2-yl)-7H-pyrazolo[4,3-e][1,2,4]triazolo[1,5-c]pyrimidin-7-yl)-(trans)-N-(4-hydroxycyclohexyl)-2-phenylpropanamide] yielded an IC50 of 6.7 nM.
Work on `COc1cccc(CNC(=O)C(C)(c2ccccc2)n2ncc3c2nc(N)n2nc(-c4ccco4)nc32)n1` (stereo not shown) [Example 112, 2-(5-amino-2-(furan-2-yl)-7H-pyrazolo[4,3-e][1,2,4]triazolo[1,5-c]pyrimidin-7-yl)-N-((6-methoxypyridin-2-yl)methyl)-2-phenylpropanamide] yielded an IC50 of 4.1 nM.
With `CC(C(=O)NCCC1CCOCC1)(c1ccccc1)n1ncc2c1nc(N)n1nc(-c3ccco3)nc21` (stereo not shown) [Example 73, 2-(5-amino-2-(furan-2-yl)-7H-pyrazolo[4,3-e][1,2,4]triazolo[1,5-c]pyrimidin-7-yl)-2-phenyl-N-(2-(tetrahydro-2H-pyran-4-yl)ethyl)propanamide] the IC50 was 9.3 nM.
With `CN1CCN(CCNC(=O)[C@@](C)(c2ccccc2)n2ncc3c2nc(N)n2nc(-c4ccco4)nc32)CC1` [Example 147B, (R)-2-(5-amino-2-(furan-2-yl)-7H-pyrazolo[4,3-e][1,2,4]triazolo[1,5-c]pyrimidin-7-yl)-N-(2-(4-methylpiperazin-1-yl)ethyl)-2-phenylpropanamide] the IC50 was 18.9 nM.
